From patent EP2017288A1, “Protease stabilized, pegylated insulin analogues” (NOVO NORDISK A/S, priority 2007, dated 2009)

Assay: Pulmonary delivery to rats (intratracheal drop instillation)
Assay type: in vivo, male Wistar rats
Conditions: statement in words; Fig. 1 is a rat intratracheal drop instillation of the insulin of example 1
Protocol: The test substance will be dosed pulmonary by the drop instillation method. In brief, male Wistar rats (app.250 g) are anaesthesized in app. […] fentanyl/dehydrodenzperidol/-dormicum given as a 6.6 ml/kg sc primingdose and followed by 3 maintainance doses of 3.3 ml/kg sc with an interval of 30 min. Ten minutes after the induction of anaesthesia, basal samples are obtained from the tail vein (t = -20 min) followed by a basal sample immediately prior to the dosing of test substance (t=0). At t=0, the test substance is dosed intra tracheally into one lung. A special cannula with rounded ending is mounted on a syringe containing the 200 ul air and test substance (1 ml/kg). Via the orifice, the cannula is introduced into the trachea and is forwarded into one of the main bronchi -just passing the bifurcature. During the insertion, the neck is palpated from the exterior to assure intratracheal positioning. The content of the syringe is injected followed by 2 sec pause. Thereafter, the cannula is slowly drawn back. The rats are kept anaesthesized during the test (blood samples for up to 4 or 8 hrs) and are euthanized after the experiment.

For “A14E, B25H, B29K(N^ε-3-mdPEG24-Propionyl), desB30 human insulin [Example 1]”, the pulmonary efficacy was “substantial protracted pulmonary efficacy”.
